“Also recorded” adds a separate entry of the source.

Data set [1] concerns the target T1, VBC protein (VHL:ElonginB:ElonginC protein complex) (Homo sapiens, UniProt P40337).
T1 construct: made in house
The format is binding. Particulars: based on FP results, GE = ΔpKd/ΔHA (heavy atoms).

Data set [2] in a line: Intracellular drug concentration (accumulation in HeLa cells). In kind it is in vitro ADME, Human. Particulars: human; HeLa cell lysate, equilibrium dialysis; read-out: Fraction unbound (fu). (In equilibrium dialysis only unbound substance equilibrates across the membrane.)
Data set [3] relates to HeLa cells. The description is as above. In kind it is in vitro ADME, Human. Particulars: HeLa cells, 50 μM, 2 h.
Another data set relates to HIF-1α. As to the kind of experiment: cells. Particulars: Homo sapiens, HeLa, 2 h, read-out: HIF-1α Stabilization (Protein % levels), HeLa cells, 50 μM inhibitor, 2 h, Western blot, normalized to level observed with 1. In general terms: Immunoblotting shows a protein as a band on a membrane.
The nature of data set [4]: Intrinsic clearance (Cli) in liver microsomes. As to conditions: female CD1 mouse liver microsomes, 0.5 μM compound. In kind it is in vitro ADME.
Data set [5] deals with T2, VBC complex (VHL:ElonginB:ElonginC) (Homo sapiens, UniProt P40337).
T2 construct: made in house
T2 sequence (Q15369 17-112): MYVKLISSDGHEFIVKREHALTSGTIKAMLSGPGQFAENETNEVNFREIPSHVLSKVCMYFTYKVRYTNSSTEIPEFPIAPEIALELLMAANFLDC
T2 sequence (P40337 54-213): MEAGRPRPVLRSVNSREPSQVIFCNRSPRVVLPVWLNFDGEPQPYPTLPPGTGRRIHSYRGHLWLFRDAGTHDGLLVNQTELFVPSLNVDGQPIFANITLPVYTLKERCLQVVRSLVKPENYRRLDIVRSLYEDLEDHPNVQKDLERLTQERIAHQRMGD
T2 sequence (Q15370 1-104, further chain): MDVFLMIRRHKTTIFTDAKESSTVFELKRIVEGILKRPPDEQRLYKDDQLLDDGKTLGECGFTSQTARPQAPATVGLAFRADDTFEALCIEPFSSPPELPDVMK
In kind it is binding. As to conditions: for LE: LE = −RT ln Kd/NHA; for LE / LLE: on the basis of ITC results; for LLE: LLE = pKd–Log D.

For another data set, the target named is T3, immobilized VBC protein (Homo sapiens, UniProt P40337).
T3 construct: made in house
T3 sequence (Q15369 17-112): as the sequence (Q15369 17-112) above
T3 sequence (Q15370 1-104, further chain): as the sequence (Q15370 1-104, further chain) above
T3 sequence (P40337 54-213): as the sequence (P40337 54-213) above
The data set is described as follows: biochemical. The format is binding. Particulars: for Dissociative t1/2: t1/2 = ln2/koff; for kon: SPR.

Data set [6] deals with HeLa cells. The data set is described as follows: Proliferation assay. Particulars: 150 μM, relative to DMSO vehicle. The format is cell-based, Human.
A short description of data set [7]: Parallel Artificial Membrane Permeability Assay (PAMPA). In kind it is in vitro ADME. Particulars: pH 7.4, as printed in text and footnote.
Data set [8] relates to HeLa cells. The data set is described as follows: Colony formation assay. The format is cell-based, Human. As to conditions: 150 μM.

T1 sequence (P40337 54-213): as above
T1 sequence (Q15369 17-112, further chain): as the sequence (Q15369 17-112) above
T1 sequence (Q15370 1-104, further chain): as the sequence (Q15370 1-104, further chain) above

Consider `Cc1ncsc1-c1ccc(CNC(=O)[C@@H]2C[C@@H](O)CN2C(=O)[C@@H](NC(=O)C2(F)CC2)C(C)O)cc1` (stereo in doubt) [Inhibitor 14, (2S,4R)-1-((2S,3S)-2-(1-Fluorocyclopropanecarboxamido)-3-hydroxybutanoyl)-4-hydroxy-N-(4-(4-methylthiazol-5-yl)benzyl)pyrrolidine-2-carboxamide], for which the “GE (group efficiency)” value in [1] is given as “–0.19”.
The fraction unbound is free concentration divided by total concentration. Regarding `CC(=O)N[C@H](C(=O)N1C[C@H](O)C[C@H]1C(=O)NCc1ccc(-c2scnc2C)cc1)C(C)(C)C` [Inhibitor 1], the fraction unbound in [2] is 0.0016. Moreover, the “Compound associated with cells” value in the data set with HeLa cells [3] was 463.8 µM. For the same compound, in the data set on HIF-1α, the Emax at 50 µM turned out to be 100 ± 7%. Moreover, in [4], the “Microsomal stability (intrinsic clearance)” value (“Microsomal stability” below) came out at 0.7 mL/min/g.
Consider `Cc1ncsc1-c1ccc(CNC(=O)[C@@H]2C[C@@H](O)CN2C(=O)[C@@H](NC(=O)OC(C)(C)C)C(C)(C)C)cc1` [Inhibitor 2], for which, in [1], the “GE (group efficiency)” value is given as −0.41.
Regarding `Cc1ncsc1-c1ccc(CNC(=O)[C@@H]2C[C@@H](O)CN2C(=O)[C@@H](NC(=O)CO)C(C)(C)C)cc1` [Inhibitor 3, (2S,4R)-4-Hydroxy-1-((S)-2-(2-hydroxyacetamido)-3,3-dimethylbutanoyl)-N-(4-(4-methylthiazol-5-yl)benzyl)pyrrolidine-2-carboxamide], in [5], the LE turned out to be 0.27 kcal × mol^-1 × NHA^-1 and the LLE turned out to be 6.28 kcal × mol^-1 × NHA^-1. In addition, in data set [1], the “GE (group efficiency)” value was −0.11.
On to `Cc1ncsc1-c1ccc(CNC(=O)[C@@H]2C[C@@H](O)CN2C(=O)[C@@H](NC(=O)CC(C)(C)C)C(C)(C)C)cc1` [Inhibitor 5, (2S,4R)-1-((S)-2-(3,3-Dimethylbutanamido)-3,3-dimethylbutanoyl)-4-hydroxy-N-(4-(4-methylthiazol-5-yl)benzyl)pyrrolidine-2-carboxamide], for which the “GE (group efficiency)” value in data set [1] is on record as −0.12.
`Cc1ncsc1-c1ccc(CNC(=O)[C@@H]2C[C@@H](O)CN2C(=O)[C@@H](NC(=O)C2CC2)C(C)(C)C)cc1` [Inhibitor 6, (2S,4R)-1-((S)-2-(Cyclopropanecarboxamido)-3,3-dimethylbutanoyl)-4-hydroxy-N-(4-(4-methylthiazol-5-yl)benzyl)pyrrolidine-2-carboxamide]: in data set [5], the LE is reported as 0.26 kcal × mol^-1 × NHA^-1 and the LLE turned out to be 5.68 kcal × mol^-1 × NHA^-1. In addition, in [1], the “GE (group efficiency)” value is given as −0.02.
With `Cc1ncsc1-c1ccc(CNC(=O)[C@@H]2C[C@@H](O)CN2C(=O)[C@@H](NC(=O)C(F)(F)F)C(C)(C)C)cc1` [Inhibitor 7, (2S,4R)-1-((S)-3,3-Dimethyl-2-(2,2,2-trifluoroacetamido)butanoyl)-4-hydroxy-N-(4-(4-methylthiazol-5-yl)benzyl)pyrrolidine-2-carboxamide], in [1], the “GE (group efficiency)” value was −0.08.
In the case of `Cc1ncsc1-c1ccc(CNC(=O)[C@@H]2C[C@@H](O)CN2C(=O)[C@@H](NC(=O)C(Cl)(Cl)Cl)C(C)(C)C)cc1` [Inhibitor 8, (2S,4R)-1-((S)-3,3-Dimethyl-2-(2,2,2-trichloroacetamido)butanoyl)-4-hydroxy-N-(4-(4-methylthiazol-5-yl)benzyl)pyrrolidine-2-carboxamide], in [1], the “GE (group efficiency)” value is on record as −0.04.
On the same count and under the same terms, in the case of `Cc1ncsc1-c1ccc(CNC(=O)[C@@H]2C[C@@H](O)CN2C(=O)[C@@H](NC(=O)C(C)(C)F)C(C)(C)C)cc1` [Inhibitor 9, (2S,4R)-1-((S)-2-(2-Fluoro-2-methylpropanamido)-3,3-dimethylbutanoyl)-4-hydroxy-N-(4-(4-methylthiazol-5-yl)benzyl)pyrrolidine-2-carboxamide] it was −0.24.
In general, Papp refers to a coefficient for how fast a substance crosses the barrier. A low value points to slow passage. As to `Cc1ncsc1-c1ccc(CNC(=O)[C@@H]2C[C@@H](O)CN2C(=O)[C@@H](NC(=O)C2(F)CC2)C(C)(C)C)cc1` [Inhibitor 10, (2S,4R)-1-((S)-2-(1-Fluorocyclopropanecarboxamido)-3,3-dimethylbutanoyl)-4-hydroxy-N-(4-(4-methylthiazol-5-yl)benzyl)pyrrolidine-2-carboxamide], the fraction unbound in data set [2] worked out at 0.0002. Besides, in the data set with HeLa cells [3], the “Compound associated with cells” value was determined as 383.6 µM and the “Final free compound concentration in cells” value is 0.071 µM. Also, the “Dissociative t1/2” value at immobilized VBC protein (10°C (first value of cell)) is 11.94 ± 0.08 s. For the same compound, the “Dissociative t1/2” value on immobilized VBC protein (20°C (second value of cell)) was found to be 7.073 ± 0.007 s. Moreover, in the data set on HeLa cells [6], the “toxicity in cell-proliferation assay” value was “notably decreased cell proliferation; also recorded: toxicity”. For the same compound, the “Microsomal stability” value in data set [4] was determined as 2.9 mL/min/g. The compound also yielded a Papp at 5 h, 10 μM in [7] of 2.71 ×10⁻⁶ cm/s. Further, in the data set with HeLa cells [8], the “toxicity in colony formation assay” value is given as “a degree of cytotoxicity; also recorded: toxicity”.
Take `Cc1ncsc1-c1ccc(CNC(=O)[C@@H]2C[C@@H](O)CN2C(=O)[C@@H](N2CCCC2=O)C(C)(C)C)cc1` [Inhibitor 12, (2S,4R)-1-((S)-3,3-Dimethyl-2-(2-oxopyrrolidin-1-yl)butanoyl)-4-hydroxy-N-(4-(4-methylthiazol-5-yl)benzyl)pyrrolidine-2-carboxamide]: the “GE (group efficiency)” value in [1] is listed as −0.48.
Turning to `Cc1ncsc1-c1ccc(CNC(=O)[C@@H]2C[C@@H](O)CN2C(=O)[C@@H](NC(=O)C2(C#N)CC2)C(C)(C)C)cc1` [Inhibitor 15, (2S,4R)-1-((S)-2-(1-Cyanocyclopropanecarboxamido)-3,3-dimethylbutanoyl)-4-hydroxy-N-(4-(4-methylthiazol-5-yl)benzyl)pyrrolidine-2-carboxamide], the fraction unbound in data set [2] turned out to be 0.0007. In addition, the “Compound associated with cells” value in the data set with HeLa cells [3] came out at 150.0 µM. Also, the “Microsomal stability” value in [4] was 3.1 mL/min/g. This compound came in with a Papp at 5 h, 10 μM in data set [7] of 1.94 ×10⁻⁶ cm/s. For the same compound, in the data set with HeLa cells [8], the “toxicity in colony formation assay” value was “no toxicity”.
In general, kon refers to a measure of how fast the partners come together. For `CC(=O)C1(C(=O)N[C@H](C(=O)N2C[C@H](O)C[C@H]2C(=O)NCc2ccc(-c3scnc3C)cc2)C(C)(C)C)CC1` [Inhibitor 16, (2S,4R)-1-((S)-2-(1-Acetylcyclopropanecarboxamido)-3,3-dimethylbutanoyl)-4-hydroxy-N-(4-(4-methylthiazol-5-yl)benzyl)pyrrolidine-2-carboxamide], the fraction unbound in data set [2] is 0.0008. Also, in the data set with HeLa cells [3], the “Compound associated with cells” value came out at 100.0 µM and the “Final free compound concentration in cells” value was determined as 0.046 µM. The “Dissociative t1/2” value at immobilized VBC protein (10°C (first value of cell)) was 10.04 ± 0.01 s. For the same compound, the “Dissociative t1/2” value at immobilized VBC protein (20°C (second value of cell)) came out at 4.101 ± 0.007 s. Further, the kon on immobilized VBC protein (10°C) is 600000 M⁻¹ s⁻¹. Besides, at immobilized VBC protein (20°C), the kon was 820000 M⁻¹ s⁻¹. In data set [5], this compound showed an LE of 0.25 kcal × mol^-1 × NHA^-1 and an LLE of 5.63 kcal × mol^-1 × NHA^-1. In addition, the “GE (group efficiency)” value in data set [1] is “–0.01”. The “Microsomal stability” value in [4] worked out at 2.5 mL/min/g. This compound displayed a Papp at 5 h, 10 μM in [7] of 1.5 ×10⁻⁶ cm/s.
In data set [5], `CC(=O)NC1(C(=O)N[C@H](C(=O)N2C[C@H](O)C[C@H]2C(=O)NCc2ccc(-c3scnc3C)cc2)C(C)(C)C)CC1` [Inhibitor 17, (2S,4R)-1-((S)-2-(1-Acetamidocyclopropanecarboxamido)-3,3-dimethylbutanoyl)-4-hydroxy-N-(4-(4-methylthiazol-5-yl)benzyl)pyrrolidine-2-carboxamide] showed an LE of 0.24 kcal × mol^-1 × NHA^-1 and an LLE of 6.28 kcal × mol^-1 × NHA^-1. Also, in [1], the “GE (group efficiency)” value is “–0.05”.
Consider `Cc1ncsc1-c1ccc(CNC(=O)[C@@H]2C[C@@H](O)CN2C(=O)[C@@H](NC(=O)C2CCC2)C(C)(C)C)cc1` [Inhibitor 18, (2S,4R)-1-((S)-2-(Cyclobutanecarboxamido)-3,3-dimethylbutanoyl)-4-hydroxy-N-(4-(4-methylthiazol-5-yl)benzyl)pyrrolidine-2-carboxamide], for which, in [2], the fraction unbound came to 0.0008. Further, the “Compound associated with cells” value in the data set with HeLa cells [3] was 204.0 µM. The “Final free compound concentration in cells” value in the data set on HeLa cells [3] was 0.093 µM. Also, the “Dissociative t1/2” value on immobilized VBC protein (10°C (first value of cell)) was found to be 4.95 ± 0.01 s; at immobilized VBC protein (20°C (second value of cell)), 2.71 ± 0.01 s. Also, the kon at immobilized VBC protein (10°C) was 517000 M⁻¹ s⁻¹; on immobilized VBC protein (20°C) it was 1.1e+06 M⁻¹ s⁻¹. In data set [5], this compound had an LE of 0.25 kcal × mol^-1 × NHA^-1. The same compound showed an LLE in data set [5] of 5.38 kcal × mol^-1 × NHA^-1. In addition, in data set [1], the “GE (group efficiency)” value is “–0.07”. The “Microsomal stability” value in data set [4] turned out to be 3.0 mL/min/g.
As to `COCCc1ccc(OCC(O)CNC(C)C)cc1` (centres unmarked) [Metoprolol, reference compound], the fraction unbound in data set [2] worked out at 0.005.
Turning to `Cc1ncsc1-c1ccc(CNC(=O)[C@@H]2C[C@H](O)CN2C(=O)[C@@H](NC(=O)C2(F)CC2)C(C)(C)C)cc1` [cis-10, (2S,4S)-1-((S)-2-(1-Fluorocyclopropanecarboxamido)-3,3-dimethylbutanoyl)-4-hydroxy-N-(4-(4-methylthiazol-5-yl)benzyl)pyrrolidine-2-carboxamide], in data set [5] (ITC and FP binding curves, Figure 2), the “binding to VHL” value is on record as “no longer binds to VHL”. Besides, the “toxicity in cell-proliferation assay” value with HeLa cells [6] was “a degree of cytotoxicity”. For the same compound, in the data set on HeLa cells [8], the “toxicity in colony formation assay” value was “a degree of cytotoxicity”.
Take `CC(C)NCC(O)COc1cccc2ccccc12` (centres unmarked) [propanolol, reference compound]: in the data set with HeLa cells [3], the “Compound associated with cells” value came to 2679.0 µM.

Source of the values: publication PMC5788404 (Journal of Medicinal Chemistry, 2017).
